These results are taken from US20210085640A1, “ACYLATED CATECHIN POLYPHENOLS AND METHODS OF THEIR USE FOR THE TREATMENT OF CANCER” (Flagship Pioneering Innovations V, Inc., priority 2018, published 2021).

A short description of series [1]: Stability in Simulated Intestinal Fluid (SIF). It is filed as in vitro ADME. The note with it: for Assay 2 (SIF) (% @ Remaining 4 hours): SIF pH 6.7 with pancreatin, 1 μM, 37° C.; for selective delivery to the upper intestine: conclusion drawn from Table 1 (SGF and SIF stability). How it is done: SIF Stability of acylated active agents in Simulated Intestinal Fluid (SIF). This assay was used to assess the stability of an acylated active agent in a small intestine.
Phosphate buffer was prepared by dissolving 0.42 g of sodium hydroxide pellets and 3.95 g of monobasic sodium phosphate monohydrate and 6.19 g of sodium chloride in ultrapure water (MilliQ®, Millipore Sigma, Darmstadt, Germany). The pH was adjusted to 6.7 using aq. HCl and aq. NaOH, as necessary, and the solution was diluted with ultrapure water to produce 1 L of the pH 6.7 buffer.
112 mg FaSSIF powder (Biorelevant™, London, UK) was dissolved in 50 mL of the pH 6.7 buffer. 2 to 3 mL of the resulting solution were then added to 500 mg pancreatin (Millipore Sigma, Darmstadt, Germany). The resulting mixture was agitated by finger tapping the vessel containing the mixture until milky suspension formed. At this time, the remainder of the 50 mL FaSSiF/pH 6.7 buffer solution was added. The resulting suspension was flipped upside down 10 times to produce SIF, which was used fresh.
Test compounds were dissolved in DMSO stock to 1 mM. An aliquot of the DMSO stock solution was removed and diluted in the SIF media in 15 mL falcon tubes to produce a mixture with a tested compound concentration of 1 μM. A 1 mL aliquot was immediately removed and diluted once with 1 volume of acetonitrile for T0 timepoint. The mixture was sealed and agitated at 37° C. in an incubator. Aliquots (1 mL) were removed at regular intervals and immediately quenched by the addition of 1 volume of acetonitrile. The resulting samples were analyzed by LC/MS to determine degradation rates.

A short description of series [2]: Stability in Simulated Gastric Fluid (SGF). Type of series: in vitro ADME. The note with it: SGF pH 1.6 with pepsin, 1 μM, 37° C. How it is done: Stability of acylated active agents in Simulated Gastric Fluid (SGF). This assay was used to assess the stability of an acylated active agent in a stomach.
Medium was prepared by dissolving 2 g of sodium chloride in 0.6 L in ultrapure water (MilliQ®, Millipore Sigma, Darmstadt, Germany). The pH was adjusted to 1.6 with 1N hydrochloric acid, and the volume was then adjusted to 1 L with purified water.
60 mg FaSSIF powder (Biorelevant™, London, UK) were dissolved in 500 mL buffer (above). Pepsin was added (0.1 mg/mL) (Millipore Sigma, Darmstadt, Germany), and the solution was stirred. The resulting SGF media were used fresh for each experiment.
Test compounds were dissolved in DMSO stock to 1 mM. An aliquot of the DMSO stock solution was removed and diluted in the SGF Media in 15 mL falcon tubes to generate a total compound concentration of 1 μM. A 1 mL aliquot was immediately removed and diluted once with 1 volume of acetonitrile for T0 timepoint. The mixture was sealed and mixed at 37° C. in an incubator. Aliquots (1 mL) were removed at regular intervals and immediately quenched by the addition of 1 volume of acetonitrile. The resulting samples were analyzed by LC/MS to determine degradation rates

With `CCCC(=O)Oc1ccc(C2CC(=O)c3c(OC(=O)CCC)cc(OC(=O)CCC)cc3O2)cc1` (stereo not shown) [Compound 10, [4-[5,7-di(butanoyloxy)-4-oxo-chroman-2-yl]phenyl] butanoate], in series [1], the “Assay 2 (SIF) (% @ Remaining 4 hours)” value is recorded as “A (<25% of the tested compound remaining)”. Further, the “Assay 1 (SGF) (% Remaining @ 1 hours)” value in series [2] was “B (25-75% of the tested compound remaining)”.

For `CC(=O)Oc1ccc(C2CC(=O)c3c(OC(C)=O)cc(OC(C)=O)cc3O2)cc1` (stereo not shown) [Compound 9, [4-(5,7-diacetoxy-4-oxo-chroman-2-yl)phenyl] acetate], in series [1], the “Assay 2 (SIF) (% @ Remaining 4 hours)” value is “A (<25% of the tested compound remaining)” and the “selective delivery to the upper intestine” value is “can be selectively delivered to the upper intestine”. In addition, the “Assay 1 (SGF) (% Remaining @ 1 hours)” value in series [2] was “C (>75% of the tested compound remaining)”.

For `CC(=O)O[C@H](C)CCOC(=O)Oc1ccc(/C=C/c2cc(OC(=O)OCC[C@@H](C)OC(C)=O)cc(OC(=O)OCC[C@@H](C)OC(C)=O)c2)cc1` [Compound 34, [(1R)-3-[4-[(E)-2-[3,5-bis[[(3R)-3-acetoxybutoxy]carbonyloxy]phenyl]vinyl]phenoxy]carbonyloxy-1-methyl-propyl] acetate], in series [1], the “Assay 2 (SIF) (% @ Remaining 4 hours)” value is recorded as “A (<25% of the tested compound remaining)” and the “selective delivery to the upper intestine” value is “can be selectively delivered to the upper intestine”. Besides, the “Assay 1 (SGF) (% Remaining @ 1 hours)” value in series [2] was “C (>75% of the tested compound remaining)”.

In the case of `CCCC(=O)O[C@H](C)CCOC(=O)Oc1ccc(/C=C/c2cc(OC(=O)OCC[C@@H](C)OC(=O)CCC)cc(OC(=O)OCC[C@@H](C)OC(=O)CCC)c2)cc1` [Compound 26, [(1R)-3-[4-[(E)-2-[3,5-bis[[(3R)-3-butanoyloxybutoxy]carbonyloxy]phenyl]vinyl]phenoxy]carbonyloxy-1-methyl-propyl] butanoate], the “Assay 2 (SIF) (% @ Remaining 4 hours)” value in series [1] is listed as “B (25-75% of the tested compound remaining)”. Further, in series [2], the “Assay 1 (SGF) (% Remaining @ 1 hours)” value is on record as “C (>75% of the tested compound remaining)”.

For `CCCC(=O)OCC[C@@H](C)OC(=O)Oc1ccc(/C=C/c2cc(OC(=O)O[C@H](C)CCOC(=O)CCC)cc(OC(=O)O[C@H](C)CCOC(=O)CCC)c2)cc1` [Compound 25, [(3R)-3-[4-[(E)-2-[3,5-bis[[(1R)-3-butanoyloxy-1-methyl-propoxy]carbonyloxy]phenyl]vinyl]phenoxy]carbonyloxybutyl] butanoate], in series [1], the “Assay 2 (SIF) (% @ Remaining 4 hours)” value is recorded as “A (<25% of the tested compound remaining)” and the “selective delivery to the upper intestine” value is given as “can be selectively delivered to the upper intestine”. In series [2], the “Assay 1 (SGF) (% Remaining @ 1 hours)” value is reported as “C (>75% of the tested compound remaining)”.

Regarding `CCCC(=O)Oc1cc(OC(=O)CCC)c2c(=O)c(OC(=O)CCC)c(-c3ccc(OC(=O)CCC)c(OC(=O)CCC)c3)oc2c1` [Compound 5, [2-butanoyloxy-4-[3,5,7-tri(butanoyloxy)-4-oxo-chromen-2-yl]phenyl] butanoate], in series [1], the “Assay 2 (SIF) (% @ Remaining 4 hours)” value is reported as “B (25-75% of the tested compound remaining)” and the “selective delivery to the upper intestine” value is recorded as “can be selectively delivered to the upper intestine”. Also, the “Assay 1 (SGF) (% Remaining @ 1 hours)” value in series [2] is given as “C (>75% of the tested compound remaining)”.

In the case of `CC(=O)Oc1cc(OC(C)=O)c2c(=O)c(OC(C)=O)c(-c3ccc(OC(C)=O)c(OC(C)=O)c3)oc2c1` [Compound 4, [2-acetoxy-4-(3,5,7-triacetoxy-4-oxo-chromen-2-yl)phenyl] acetate], in series [1], the “Assay 2 (SIF) (% @ Remaining 4 hours)” value was “A (<25% of the tested compound remaining)” and the “selective delivery to the upper intestine” value is given as “can be selectively delivered to the upper intestine”. Also, the “Assay 1 (SGF) (% Remaining @ 1 hours)” value in series [2] is “C (>75% of the tested compound remaining)”.
